Data reported in patent US20190119200A1, “TERTIARY AMIDES AND METHOD OF USE” (AbbVie Inc., priority 2016, published 2019).
One block for each molecule: values may come before it.

What was measured:
LPAR1 = molecular target: T1, LPAR1 (Homo sapiens, UniProt Q92633); experiment: LPAR1 FLIPR Assay; type: cell-based; details: U2OS cells stably expressing LPAR1, LPA (EC80), Calcium 6 FLIPR dye; for Emax: read-out: Maximum Inhibition
T1 construct: host or cells: U2OS
Procedure: U2OS cells stably expressing LPAR1 (Life Technologies #K1519A) were plated at 12000 cells/well in growth medium (McCoy's 5A medium(Life Technologies 16600-082)) with 10% dFBS (Life Technologies 26400-036), 0.1 mM non-essential amino acids, 25 mM HEPES, 1 mM sodium pyruvate, 1% penicillin/streptomycin, 50 μg/mL hygromycin, and 100 μg/mL Geneticin® in black-walled, clear-bottom 384-well plates (Corning #3683) and incubated in humidified 5% CO2 at 37° C. overnight. On the day of the assay, medium was removed and 30 μL of 5% Calcium 6 FLIPR dye in assay buffer-HBSS (Life Technologies #14025) containing 20 mM HEPES (Life Technologies #15630-080) was added to the cells. Cells were incubated at 37° C. in the dark for 2 hours. Compounds were 3-fold serial diluted from 10 mM for 11-points using dimethyl sulfoxide. 1 μL of compound in DMSO was diluted in 82.3 μL assay buffer immediately before the assay. Using a FLIPR® TETRA® system, 15 μL of the (4×) compound solutions were first added to the cells, then 15 μL of LPA (EC80) diluted in of assay buffer supplemented with 0.1% BSA was added 3 minutes later to activate the receptor. Changes in fluorescence were measured at wavelengths of 515-575 nm over the course of the experimental run. IC50 values were calculated from curve fits of the ratio data using a four-parameter logistic Hill equation (Assay Explorer 3.3 Client).

[1] = tested on: LPA-induced MCP-1 in NRK-49F cells; experiment: LPA-induced MCP-1 AlphaLISA assay; type: cell-based; details: Rattus norvegicus, final LPA 10 μM, 7 hours; for Emax: read-out: Maximum Inhibition
Procedure: Two days prior to the experiment, NRK-49F cells were plated at 8,000 cells/well in 100 μL of growth medium [DMEM (Life Technologies #11995) with 5% dFBS (Life Technologies #30067-334), 100 units/mL penicillin/streptomycin (Life Technologies #15140122)] in 96-well clear flat bottom polystyrene TC-treated microplate (Corning® #3599) and incubated in humidified 10% CO2 at 37° C. One day prior to the experiment, the cell medium was removed and serum free medium [100 μL/well, DMEM (Life Technologies #11995) with 0.1% fatty acid free BSA (Sigma #A6003)] was added with continued incubation in humidified 10% CO2 at 37° C. overnight. On the day of the assay, test compounds were 1:3 serially diluted in 100% DMSO using a BioTek Precision™ system and then transferred (equivalent volume of DMSO as controls) to a plate in serum free medium [DMEM with 0.1% fatty acid free BSA] using a Biomek® NX workstation to give a 2× compound solution. The cell culture medium was removed, and cells were pre-treated with 50 μL/well of 2× compound in serum free medium [DMEM with 0.1% fatty acid free BSA] at 37° C. for 30 minutes. Following the incubation, 50 μL/well of 20 μM LPA diluted in serum free medium [DMEM with 0.1% fatty acid free BSA] was added to the cells. Serum free medium [DMEM with 0.1% fatty acid free BSA] was used as substitution for low control wells while 20 µM LPA was added to high control wells and test compound wells. 200 µM LPA was added to EC100 wells. Final DMSO concentration was 1% in every well. Final LPA concentration in test compound wells and high control wells was 10 μM. […] After the incubation, cell supernatant was transferred to a new 96 well polypropylene plate (Greiner #651201) where it was sealed and stored at −80° C. On the detection day, 5 μL of thawed cell supernatant was transferred to a new white opaque 384-well microplate (Perkin Elmer #6007299). An AlphaLISA® mouse/rat CCL2/MCP1, Immunoassay Research kit (PerkinElmer #AL509F) was used. A mixture (20 μL/well) of AlphaLISA® Anti-Analyte Accept beads (10 μg/mL final) and Biotinylated Antibody Anti-Analyte (freshly prepared, 1 nM final) was added. The mixture in the wells was mixed and then incubated at room temperature for 1 hour. Then SA-Donor beads (25 μL/well, 40 μg/mL final) were added giving a final volume of 50 μL/well. The contents of the wells were mixed and then incubated at room temperature for 0.5 hour (protect from light). The plate was read using the default Envision™ Alpha protocol (PerkinElmer). IC50 values were calculated from curve fits of the ratio data using a four-parameter logistic Hill equation (Assay Explorer 3.3 Client).

T1 sequence (Q92633 whole entry): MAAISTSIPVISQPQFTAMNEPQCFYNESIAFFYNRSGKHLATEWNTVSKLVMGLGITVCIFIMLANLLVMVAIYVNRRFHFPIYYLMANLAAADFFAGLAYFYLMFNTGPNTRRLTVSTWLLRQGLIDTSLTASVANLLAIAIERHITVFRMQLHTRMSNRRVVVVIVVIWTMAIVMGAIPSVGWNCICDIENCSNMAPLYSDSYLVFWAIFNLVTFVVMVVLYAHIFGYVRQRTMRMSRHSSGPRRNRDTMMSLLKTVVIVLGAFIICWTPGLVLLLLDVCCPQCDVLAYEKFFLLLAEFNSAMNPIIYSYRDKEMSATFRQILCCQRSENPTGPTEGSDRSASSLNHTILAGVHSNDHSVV

Compound: COc1ccc(C(=O)N(CCCCC(=O)O)CCCc2ccccc2)cc1F [Example 79, 5-[(3-fluoro-4-methoxybenzoyl)(3-phenylpropyl)amino]pentanoic Acid]
IC50 (LPAR1): > 30 µM | Emax (LPAR1): 13% | IC50 [1]: > 10 µM | Emax [1]: 36%

Compound: O=C(O)CCCCN(CCCc1ccccc1)C(=O)c1ccc2c(c1)OCO2 [Example 80, 5-[(2H-1,3-benzodioxole-5-carbonyl)(3-phenylpropyl)amino]pentanoic Acid]
IC50 (LPAR1): > 30 µM | Emax (LPAR1): 37% | IC50 [1]: > 10 µM | Emax [1]: 37%

Compound: COc1cc(C(=O)N(CCCCC(=O)O)CCCc2ccccc2)ccc1F [Example 81, 5-[(4-fluoro-3-methoxybenzoyl)(3-phenylpropyl)amino]pentanoic Acid]
IC50 (LPAR1): > 30 µM | Emax (LPAR1): 31% | IC50 [1]: > 10 µM | Emax [1]: 33%

Compound: COc1cccc(C2(C(=O)N(CCCCC(=O)O)CCCc3ccccc3)CC2)c1 [Example 82, 5-{[1-(3-methoxyphenyl)cyclopropane-1-carbonyl](3-phenylpropyl)amino}pentanoic Acid]
IC50 (LPAR1): > 30 µM | Emax (LPAR1): 39% | IC50 [1]: > 10 µM | Emax [1]: 2%

Compound: COc1ccc(C(=O)N(CCCCC(=O)O)CCCc2ccccc2)cc1OC [Example 83, 5-[(3,4-dimethoxybenzoyl)(3-phenylpropyl)amino]pentanoic Acid]
IC50 (LPAR1): > 30 µM | Emax (LPAR1): 25% | IC50 [1]: > 10 µM | Emax [1]: 11%

Compound: COc1ccc(C(=O)N(CCCCC(=O)O)CCCc2ccccc2)cc1 [Example 84, 5-[(4-methoxybenzoyl)(3-phenylpropyl)amino]pentanoic Acid]
IC50 (LPAR1): > 30 µM | Emax (LPAR1): 7% | IC50 [1]: > 10 µM | Emax [1]: 31%

Compound: COc1ccc(C(C)(C)C(=O)N(CCCCC(=O)O)CCCc2ccccc2)cc1 [Example 85, 5-{[2-(4-methoxyphenyl)-2-methylpropanoyl](3-phenylpropyl)amino}pentanoic Acid]
IC50 (LPAR1): > 30 µM | Emax (LPAR1): 14% | IC50 [1]: > 10 µM | Emax [1]: 12%

Compound: COc1ccc(C2(C(=O)N(CCCCC(=O)O)CCCc3ccccc3)CCC2)cc1 [Example 86, 5-{[1-(4-methoxyphenyl)cyclobutane-1-carbonyl](3-phenylpropyl)amino}pentanoic Acid]
IC50 (LPAR1): 0.044 µM | Emax (LPAR1): 88% | IC50 [1]: 2.98 µM | Emax [1]: 74%

Compound: COc1ccc(C2(C(=O)N(CCCc3ccccc3)CCOCC(=O)O)CC2)cc1 [Example 87, (2-{[1-(4-methoxyphenyl)cyclopropane-1-carbonyl](3-phenylpropyl)amino}ethoxy)acetic Acid]
IC50 (LPAR1): 0.081 µM | Emax (LPAR1): 71% | IC50 [1]: 5.44 µM | Emax [1]: 62%

Compound: COc1ccc(C2(C(=O)N(CCCCC(=O)O)CCCc3cccc(F)c3)CC2)cc1 [Example 92, 5-{[3-(3-fluorophenyl)propyl][1-(4-methoxyphenyl)cyclopropane-1-carbonyl]amino}pentanoic Acid]
IC50 (LPAR1): 0.06 µM | Emax (LPAR1): 90% | IC50 [1]: 4.49 µM | Emax [1]: 72%

Compound: COc1ccc(C2(C(=O)N(CCCCC(=O)O)CCCc3cccc(Cl)c3)CC2)cc1 [Example 102, 5-{[3-(3-chlorophenyl)propyl][1-(4-methoxyphenyl)cyclopropane-1-carbonyl]amino}pentanoic Acid]
IC50 (LPAR1): 0.047 µM | Emax (LPAR1): 85% | IC50 [1]: 1.55 µM | Emax [1]: 80%

Compound: COc1ccc(C2(C(=O)N(CCCCC(=O)O)CCCc3ccccc3)CC2)c(F)c1 [Example 103, 5-{[1-(2-fluoro-4-methoxyphenyl)cyclopropane-1-carbonyl](3-phenylpropyl)amino}pentanoic Acid]
IC50 (LPAR1): 0.068 µM | Emax (LPAR1): 75% | IC50 [1]: 5.46 µM | Emax [1]: 62%

Compound: COc1ccc(C2(C(=O)N(CCCCC(=O)O)CCCc3ccccc3)CC2)cc1Cl [Example 107, 5-{[1-(3-chloro-4-methoxyphenyl)cyclopropane-1-carbonyl](3-phenylpropyl)amino}pentanoic Acid]
IC50 (LPAR1): 0.078 µM | Emax (LPAR1): 85% | IC50 [1]: 3.59 µM | Emax [1]: 71%

Compound: COc1cc(C(=O)N(CCCc2c(F)cccc2F)CCSCC(=O)O)cc(OC)c1C [Example 113, [(2-{[3-(2,6-difluorophenyl)propyl](3,5-dimethoxy-4-methylbenzoyl)amino}ethyl)sulfanyl]acetic Acid]
IC50 (LPAR1): 0.032 µM | Emax (LPAR1): 87% | IC50 [1]: 1.01 µM | Emax [1]: 86%

The next lines start with results.

IC50 (LPAR1): 0.056 µM | Emax (LPAR1): 98% | IC50 [1]: 0.637 µM
Compound: CNS(=O)(=O)NC(=O)CCCCN(CCCc1ccccc1)C(=O)c1cc(OC)c(C)c(OC)c1 [Example 70, 3,5-dimethoxy-4-methyl-N-{5-[(methylsulfamoyl)amino]-5-oxopentyl}-N-(3-phenylpropyl)benzamide]
Emax [1]: 90%

IC50 (LPAR1): 0.043 µM | Emax (LPAR1): 96% | IC50 [1]: 0.819 µM
Compound: CCCCC(CCCN(CCCc1ccccc1)C(=O)c1cc(OC)c(C)c(OC)c1)C(=O)O (stereo not shown) [Example 93, 2-{3-[(3,5-dimethoxy-4-methylbenzoyl)(3-phenylpropyl)amino]propyl}hexanoic Acid]
Emax [1]: 84%

IC50 (LPAR1): > 30 µM | Emax (LPAR1): 2% | IC50 [1]: > 10 µM
Compound: COc1cc(C(=O)N(CCCCC(=O)O)Cc2ccccc2)cc(OC)c1C [Example 94, 5-[benzyl(3,5-dimethoxy-4-methylbenzoyl)amino]pentanoic Acid]
Emax [1]: 13%

IC50 (LPAR1): > 30 µM | Emax (LPAR1): 10% | IC50 [1]: > 10 µM
Compound: COc1cc(C(=O)N(CCCCC(=O)O)CCc2ccccc2)cc(OC)c1C [Example 95, 5-[(3,5-dimethoxy-4-methylbenzoyl)(2-phenylethyl)amino]pentanoic Acid]
Emax [1]: 18%

IC50 (LPAR1): 19.9 µM | Emax (LPAR1): 62% | IC50 [1]: > 10 µM
Compound: COc1cc(C(=O)N(CCCCC(=O)O)CCCCc2ccccc2)cc(OC)c1C [Example 96, 5-[(3,5-dimethoxy-4-methylbenzoyl)(4-phenylbutyl)amino]pentanoic Acid]
Emax [1]: 52%

IC50 (LPAR1): 0.116 µM | Emax (LPAR1): 97% | IC50 [1]: 0.036 µM
Compound: CCCCC(C)(CCCN(CCCc1ccccc1)C(=O)c1cc(OC)c(C)c(OC)c1)C(=O)O (stereo not shown) [Example 97, 2-{3-[(3,5-dimethoxy-4-methylbenzoyl)(3-phenylpropyl)amino]propyl}-2-methylhexanoic Acid]
Emax [1]: 94%

IC50 (LPAR1): 0.094 µM | Emax (LPAR1): 95% | IC50 [1]: 2.9 µM
Compound: CCC1CCC(NC(=O)CN(CCCc2ccccc2)C(=O)c2cc(OC)c(C)c(OC)c2)(C(=O)O)CC1 (stereo not shown) [Example 104, 1-{[N-(3,5-dimethoxy-4-methylbenzoyl)-N-(3-phenylpropyl)glycyl]amino}-4-ethylcyclohexane-1-carboxylic Acid]
Emax [1]: 74%

IC50 (LPAR1): 0.315 µM | Emax (LPAR1): 77% | IC50 [1]: 0.996 µM
Compound: COc1cc(C(=O)N(CCCc2ccccc2Cl)CCSCC(=O)O)cc(OC)c1C [Example 112, [(2-{[3-(2-chlorophenyl)propyl](3,5-dimethoxy-4-methylbenzoyl)amino}ethyl)sulfanyl]acetic Acid]
Emax [1]: 78%
